Values quoted from earlier work, collected in US20230357095A1, “HYDROGEN NANOBUBBLES INFUSED WATER FOR […] IRRIGATION” (L'Air Liquide, Societe Anonyme pour l'Etude et …, priority 2020, published 2023).
Like-named read-outs stand apart in the source and are kept apart here.

Settings: P=1 bar

## [HH] [hydrogen]
T=273.1 K
  Saturation concentration of hydrogen in pure water: 1.95 mg/L
T=298.1 K
  Saturation concentration of hydrogen in pure water: 1.60 mg/L
